pIC50: −log10 of the molar value. Where no end group is shown, it is not given here.

Targets include HLA A3301 (Homo sapiens, UniProt P04439, A270S/D185E/E176V/E277Q/E87N/F33T/G231S/H175R/I121M/I218V/I322F/K168Q/K210R/L300P/L318F/M331R/P217A/Q86R/Q94H/R138Q/T323A/T345S/T97I/V358M/Y195H); HLA A6801 (Homo sapiens, UniProt P04439, A269V/D185E/E176V/E277Q/E87N/F33Y/G231S/I121M/I166T/I218V/L180W/L300P/L318F/N151K/P208A/P217A/Q86R/R169H/T345S); HLA A1101 (Homo sapiens, UniProt P04439, A114D/D185E/E176A/F33Y/L180Q/S129P/T187R); HLA A2402 (Homo sapiens, UniProt P04439, D101N/D140Y/D185E/E176V/E190D/F33S/G103R/G107R/I119L/I121M/I306V/K335N/L105A/L180Q/L300P/N151K/N90K/Q86E/Q94H/R106L/R138H/R89G/T104I/T345S/V100E/W191G/Y123F); HLA A3002 (Homo sapiens, UniProt P04439, D101N/D140H/D185E/E176R/F33S/G80R/H175R/K168Q/Q94H/R138E/R41S/V100E); HLA A2902 (Homo sapiens, UniProt P04439, A270S/D101N/D185E/E176V/E277Q/E87Q/F33T/G231S/H175R/I121M/I218V/I322F/K168Q/L300P/L318F/M331R/P208A/P217A/Q86L/T323A/T345S/V100A/V358M); HLA A2302 (Homo sapiens, UniProt P04439, D101N/D140Y/D185E/E176V/E190D/F33S/G103R/G107R/H175R/I119L/I121M/I306V/K168Q/K335N/L105A/L180W/L300P/N151K/N90K/P307H/Q86E/Q94H/R106L/R138H/R89G/T104I/T345S/V100E/W191G/Y123F); HLA A3101 (Homo sapiens, UniProt P04439, A270S/D185E/E176V/E277Q/F33T/G231S/G80R/H175R/I121M/I218V/I322F/K168Q/L300P/L318F/M331R/P217A/Q94H/R138Q/T323A/T345S/T97I/V358M); HLA A0203 (Homo sapiens, UniProt P04439, A173T/D140Y/D185E/D98H/E277Q/G131W/G231S/I119V/I121R/I166T/I218V/L180W/L300P/L318F/N151K/N90K/P208A/P217A/Q86G/Q94H/R138H/R169H/T345S); HLA A2601 (Homo sapiens, UniProt P04439, A114D/A173T/A270S/D101N/D185E/E277Q/E87N/F33Y/G231S/I121R/I218V/K168Q/L180W/L300P/L318F/P208A/P217A/Q86R/Q94H/R138Q/S129P/T187R/T323A/T345S/V100A/V358M); HLA A6802 (Homo sapiens, UniProt P04439, A269V/D140Y/D185E/E176V/E277Q/E87N/F33Y/G231S/I121R/I166T/I218V/L180W/L300P/L318F/N151K/P208A/P217A/Q86R/R138H/R169H/S129P/T345S/V36M); HLA A0202 (Homo sapiens, UniProt P04439, D140Y/D185E/D98H/E176V/E277Q/G131W/G231S/I119L/I121R/I166T/I218V/L180W/L300P/L318F/N151K/N90K/P208A/P217A/Q67R/Q86G/Q94H/R138H/R169H/T345S).

Common to all, as to test: HLA class I competition binding assay using soluble HLA
The target of the next assay is T1, HLA A0301 (Homo sapiens, UniProt P04439).
T1 construct: endogenous in cells

By pIC50 is commonly meant the negative decadic logarithm of the IC50, by convention in mol/L. Higher therefore signals a low IC50. In the case of STVSVGTAK [compound 34], the pIC50 at HLA A3301 is less than 4.70.

QVVPAYNISK [compound 35] showed a pIC50 on HLA A0301 of 6.51.

For SVICFVNSK [compound 16], the pIC50 was 7.29 on HLA A3301, 8.27 at HLA A6801 and 8.66 on HLA A1101.

Take VYVCAFAWLL [compound 86]: the negative logarithm of the IC50 (pIC50) on HLA A2402 is 8.08; on HLA A3002 it was less than 4.70; on HLA A2902, 5.63; at HLA A2302, 8.09.

Regarding FVVYRDSIPK [compound 36], the negative logarithm of the IC50 (pIC50) was 8.10 at HLA A3101; 6.33 on HLA A3301; 6.75 at HLA A6801; 5.46 on HLA A0301; 5.60 on HLA A1101.

On HLA A0203, KLLEKLLCI [compound 49] showed a pIC50 of 8.62.

Consider LYGVSFSEL [compound 18], for which the pIC50 on HLA A2402 was 8.51; at HLA A3002 it was less than 4.70; at HLA A2902 it was less than 4.70; on HLA A2302 it was 8.14.

With VYDFAFRDLCI [compound 20], the negative-log IC50 (pIC50) on HLA A2402 is 7.66; at HLA A3002, less than 4.70; at HLA A2902 it was less than 4.70; on HLA A2302 it was 8.05.

For KVSEFRWYRY [compound 59], the pIC50 at HLA A3101 is 8.52; on HLA A3301 it was 6.47; on HLA A6801, 6.72; at HLA A0301, 6.67.

As for VTTRYPLLR [compound 81], the results for the pIC50 at HLA A3301, on HLA A6801 and at HLA A0301 were less than 4.70, 5.50 and 6.80, respectively.

As to STAAALYWYK [compound 13], the pIC50 at HLA A3301 is 6.89.

In the case of DSVYGDTLER [compound 37], the pIC50 on HLA A3101 is 6.61; on HLA A6801, 7.36; on HLA A0301, 6.71.

Take RTEVYQFAFR [compound 82]: the pIC50 was 8.10 on HLA A3101, 6.16 at HLA A3301 and 6.36 on HLA A6801.

Take VYVFCFLLPM [compound 43]: the negative-log IC50 (pIC50) is 6.75 on HLA A2402, less than 4.70 at HLA A3002, 5.28 at HLA A2902 and 7.24 at HLA A2302.

LTDVSIACVY [compound 69] showed a pIC50 on HLA A2601 of 5.09.

Consider VYQFAFKDL [compound 87], for which the pIC50 was 8.40 at HLA A2402, less than 4.70 at HLA A2902 and 8.96 on HLA A2302.

With ATLQDIVLH [compound 38], the pIC50 on HLA A3101 was 6.27; at HLA A0301, 6.68.

As to ATTPIIHLK [compound 58], the pIC50 on HLA A3101 was 7.47; at HLA A3301 it was less than 4.70; at HLA A6801, 8.60; on HLA A0301 it was 8.00; on HLA A1101, 8.92.

As to `CC[C@H](C)[C@H](N)C(=O)N[C@@H](CO)C(=O)N[C@@H](Cc1ccccc1)C(=O)N[C@@H](C)C(=O)NCC(=O)N[C@H](C(=O)N[C@H](C(=O)N[C@H](C(=O)N[C@@H](CCCCN)C(=O)O)[C@@H](C)O)C(C)C)[C@@H](C)CC` [compound 57], the negative-log IC50 (pIC50) at HLA A3101 was 6.94; on HLA A6801, 7.80; on HLA A1101 it was 8.80.

As to VYGTTLEKL [compound 66], the pIC50 at HLA A2402 was 7.59; on HLA A3002, 5.91; on HLA A2902, less than 4.70; on HLA A2302, 8.09.

As for LQDKILDHY [compound 67], the pIC50 is 5.30 on HLA A2601 and 6.08 on HLA A3002.

On to STWHWTGCNK [compound 80], for which the pIC50 at HLA A3301 was 6.37; at HLA A1101 it was 8.55.

On to ELDPVDLLCY [compound 71], for which the pIC50 on HLA A2601 was 5.68; on HLA A3002, less than 4.70.

As to TLQEIVLHV [compound 77], the values for the pIC50 on HLA A6802, at HLA A0203 and on HLA A0202 were 5.61, 8.29 and 7.52, respectively.

For QTEPDTSNY [compound 48], the pIC50 at HLA A2601 is less than 4.70.

On to KSLFGMSLMK [compound 15], for which the pIC50 on HLA A3101 is 6.64; at HLA A6801, 6.05; at HLA A0301, 8.41.

As to `CC(C)C[C@H](NC(=O)CNC(=O)[C@@H](NC(=O)[C@H](CC(N)=O)NC(=O)[C@@H](NC(=O)[C@H](CC(C)C)NC(=O)[C@H](CCCCN)NC(=O)[C@H](CCC(=O)O)NC(=O)[C@H](CC(C)C)NC(=O)[C@@H](N)[C@@H](C)O)[C@@H](C)O)[C@@H](C)O)C(=O)N[C@@H](Cc1ccc(O)cc1)C(=O)O` [compound 26], the pIC50 at HLA A2601 is 6.58; at HLA A3002 it was 6.32; on HLA A2902, 5.62.

Consider AATKYPLLK [compound 17], for which the pIC50 at HLA A3101 is less than 4.70; on HLA A3301, less than 4.70; on HLA A6801, less than 4.70; on HLA A1101, 7.70.

Consider VVLLLVRYK [compound 12], for which the pIC50 at HLA A3101 is 10.00; at HLA A3301, 8.21; at HLA A6801, 7.12; on HLA A0301, 8.20; at HLA A1101, 8.39.

Take PYLHSRLVVF [compound 61]: the pIC50 on HLA A2402 is 7.41; at HLA A2902, 5.36; at HLA A2302 it was 8.55.

As to YYITETGIW [compound 85], the pIC50 on HLA A2402 was 8.07; at HLA A3002, less than 4.70; at HLA A2902 it was less than 4.70; at HLA A2302, 8.70.

On to STAAALYWYR [compound 56], for which the pIC50 at HLA A3101 is 8.25; on HLA A3301, 7.33; on HLA A6801, 7.92; on HLA A0301, 6.70; at HLA A1101, 8.00.

For the compound AVMCRHYKR [compound 78], the values for the pIC50 at HLA A6801, at HLA A0301 and at HLA A1101 were 7.54, 6.51 and 7.42, respectively.

Regarding SVYGTTLER [compound 60], the pIC50 is 7.12 on HLA A3101; 6.07 at HLA A3301; 8.40 on HLA A6801; 7.66 at HLA A0301; 8.15 at HLA A1101.

Take FYSKVSEFRW [compound 65]: the pIC50 on HLA A2402 was 8.35; on HLA A3002, 5.87; on HLA A2902, 5.75; at HLA A2302, 8.06.

On to VFTFPHAFPF [compound 84], for which the pIC50 at HLA A2402 was 7.04; on HLA A3002, less than 4.70; at HLA A2902 it was 7.24; on HLA A2302, 7.80.

Turning to LSQMVQWAY [compound 1], the values for the negative logarithm of the IC50 (pIC50) at HLA A2601 and on HLA A3002 were 5.19 and 9.03, respectively.

Regarding HYTNWKFIF [compound 63], the pIC50 at HLA A2402 is 8.07; on HLA A3002 it was 5.31; on HLA A2902 it was 6.36; at HLA A2302 it was 7.80.

On to ATCVSHRGLY [compound 25], for which the pIC50 on HLA A2601 is 6.19.

As to SVYGETLEK [compound 83], the pIC50 at HLA A3101 was 5.19; at HLA A6801, 8.14; on HLA A1101, 8.02.

The values are drawn from patent US8969542B2, “HPV polyepitope constructs and uses thereof” (priority 2007, dated 2015).
